Assay results published in patent publication US9205091B2, “Diazeniumdiolated compounds, pharmaceutical compositions, and method of treating cancer” (The United States of America, as represented by the …, priority 2009, dated 2015).

Assays:
NSCLC cell lines = test: MTT proliferation assay, JS-K, NSCLC panel summary; format: cell-based, human; details: six cell lines; read-out: IC50 range of the sensitive cell lines
Method: (§1) JS-K is synthesized as described previously (Saavedra et al., J. Org. Chem., 66: 3090-3098(2001)). Cell lines are obtained from the American Type Culture Collection (Manassas, Va.) and cultured according to the supplier's protocol. For proliferation assays cells are seeded at 2×10^4 per well in 96-well plates and allowed to adhere for 24 h. JS-K is prepared as 10 mM stock solution in DMSO. Increasing drug concentrations in 10 μL of PBS are added to 100 μL of the culture medium for 48 h. MTT assay (Promega, Madison, Wis.) is performed according to the manufacturer's protocol. Each concentration is represented in six repeats, and the screening is performed as at least two independent experiments. IC50 values are calculated using Sigma Plot software (Systat Software, Chicago, Ill.).

H1944 = test: CellTiter 96 MTT cell proliferation assay (Example 9); format: cell-based, human
Method: (§2) Cell lines derived from human non-small cell lung cancers are obtained from American Type Culture Collection (ATCC, Manassas, Va.), and are designated by their NCI numbers. Cells are maintained in RPMI 1640 medium (Gibco, Invitrogen, Carlsbad, Calif.), supplemented with 10% fetal calf serum (Gemini Bio-Products, Sacramento, Calif.), 100 U/mL penicillin/streptomycin, and 2 mM glutamine at 37° C. and 5% CO2.
(§3) For proliferation assays cells are seeded at 2×10^4/well in 96-well plates, allowed to adhere for 24 hrs, and then are treated with the drug or DMSO as a control for 48 hours. […] Compounds are prepared as 10 mM stock solution in dimethyl sulfoxide (Sigma, St. Louis, Mo.). Increasing drug concentrations in 10 μL of phosphate-buffered saline (PBS) are added to 100 μL of the culture medium and incubated at 37° C. for 72 h. The CellTiter 96 non-radioactive cell proliferation assay (MTT assay, Promega, Madison, Wis.), is performed according to the manufacturer's protocol. Each compound concentration is represented in six repeats, and the screening is performed as at least two independent experiments. IC50 values are calculated using Sigma Plot software (Systat Software).

H2122 = test: as above; format: cell-based, human
Method: as §2, §3

H1373 = test: as above; format: cell-based, human
Method: as §2, §3

H1703 = test: as above; format: cell-based, human
Method: as §2, §3

H441 = test: as above; format: cell-based, human
Method: as §2, §3

mitochondrial superoxide = test: Mitochondrial superoxide level, MitoSOX; format: cell-based, human
Method: Mitochondrial superoxide level is measured using MitoSOX fluorescent dye (Invitrogen, Carlsbad, Calif.), according to the manufacturer's protocol. Rotenone (10 μM) is used as a positive control.

[1] = system: IL-1β, IL-2, IL-4, IL-5, IL-10, IL-12t, IFNγ or TNFα; test: Serum cytokines, mouse Th1/2 multiplex assay; format: in vivo, mice; details: serum at termination; 6 μmol/kg i.v., three times a week for three weeks
Method: H1944 or H1703 cells are injected at 5×10^6 s.c. into a flank of 7-week-old female athymic NCr-nu/nu mice (Charles River, Wilmington, Mass.). The drug injections are initiated when the tumors reached 2×2×2 mm (typically 3-4 weeks). JS-K is formulated in Pluronic P123 (P123) (BASF, Florham Park, N.J.) micelles. Animals are treated three times a week for three weeks with i.v. tail vein injections of either vehicle (2.25% P123 in PBS) or JS-K (6 μmol/kg in the vehicle). Tumors are measured using a caliper twice a week, and the tumor volumes are calculated using a formula for ellipsoid volume, π/6×L×W×H (Tomayko and Reynolds, 1989). The non-parametric Mann-Whitney test is utilized for statistical comparisons of tumor volumes at each time point. Body weights are taken before each drug injection. Animals are sacrificed 2 h after the last drug injection. Blood is collected by cardiac puncture under isoflurane anesthesia, for testing for cytokines. Cytokines in serum are measured using a mouse Th1/2 multiplex assay (Meso Scale Discovery, Gaithersburg, Md.), according to the manufacturer's protocol. There were 9-13 mice/group at termination.

H2030/CRL5914 = test: MTT proliferation assay, JS-K 48 h (Example 3); format: cell-based, human; details: 10 concentrations 50 nM to 50 μM
Method: as §1

H838/CRL5844 = test: MTT proliferation assay, JS-K 48 h (Example 3); format: cell-based, human; details: 10 concentrations 50 nM to 50 μM
Method: as §1

H2122/CRL5985 = test: MTT proliferation assay, JS-K 48 h (Example 3); format: cell-based, human; details: 10 concentrations 50 nM to 50 μM
Method: as §1

H1355/CRL5865 = test: MTT proliferation assay, JS-K 48 h (Example 3); format: cell-based, human; details: 10 concentrations 50 nM to 50 μM
Method: as §1

H1373/CRL5866 = test: MTT proliferation assay, JS-K 48 h (Example 3); format: cell-based, human; details: 10 concentrations 50 nM to 50 μM
Method: as §1

H1693/CRL5887 = test: MTT proliferation assay, JS-K 48 h (Example 3); format: cell-based, human; details: 10 concentrations 50 nM to 50 μM
Method: as §1

H322/CRL5806 = test: MTT proliferation assay, JS-K 48 h (Example 3); format: cell-based, human; details: 10 concentrations 50 nM to 50 μM
Method: as §1

H1734/CRL5891 = test: MTT proliferation assay, JS-K 48 h (Example 3); format: cell-based, human; details: 10 concentrations 50 nM to 50 μM
Method: as §1

H460/HTB177 = test: MTT proliferation assay, JS-K 48 h (Example 3); format: cell-based, human; details: 10 concentrations 50 nM to 50 μM
Method: as §1

H1568/CRL5876 = test: MTT proliferation assay, JS-K 48 h (Example 3); format: cell-based, human; details: 10 concentrations 50 nM to 50 μM
Method: as §1

H1395/CRL5868 = test: MTT proliferation assay, JS-K 48 h (Example 3); format: cell-based, human; details: 10 concentrations 50 nM to 50 μM
Method: as §1

H1792/CRL5895 = test: MTT proliferation assay, JS-K 48 h (Example 3); format: cell-based, human; details: 10 concentrations 50 nM to 50 μM
Method: as §1

H441/HTB174 = test: MTT proliferation assay, JS-K 48 h (Example 3); format: cell-based, human; details: 10 concentrations 50 nM to 50 μM
Method: as §1

H2126/CRL5925 = test: MTT proliferation assay, JS-K 48 h (Example 3); format: cell-based, human; details: 10 concentrations 50 nM to 50 μM
Method: as §1

H1703/CRL5889 = test: MTT proliferation assay, JS-K 48 h (Example 3); format: cell-based, human; details: 10 concentrations 50 nM to 50 μM
Method: as §1

H2023/CRL5912 = test: MTT proliferation assay, JS-K 48 h (Example 3); format: cell-based, human; details: 10 concentrations 50 nM to 50 μM
Method: as §1

A549/CCL185 = test: MTT proliferation assay, JS-K 48 h (Example 3); format: cell-based, human; details: 10 concentrations 50 nM to 50 μM
Method: as §1

H1944/CRL5907 = test: MTT proliferation assay, JS-K 48 h (Example 3); format: cell-based, human; details: 10 concentrations 50 nM to 50 μM
Method: as §1

- IC50 (H1944): > 10 µM
- IC50 (H2122): 3.17 µM
- IC50 (H1373): 0.86 µM
- IC50 (H1703): 0.57 µM
- IC50 (H441): 0.94 µM
- serum cytokine levels, treated vs control groups [1]: no significant differences
- IC50 (H2030/CRL5914): 14.7 µM
- IC50 (H838/CRL5844): 5.84 µM
- IC50 (H2122/CRL5985): 6.09 µM
- IC50 (H1355/CRL5865): 7.93 µM
- IC50 (H1373/CRL5866): 0.97 µM
- IC50 (H1693/CRL5887): 0.33 µM
- IC50 (H322/CRL5806): 8.71 µM
- IC50 (H1734/CRL5891): 0.36 µM
- IC50 (H460/HTB177): 7.61 µM
- IC50 (H1568/CRL5876): 0.4 µM
- IC50 (H1395/CRL5868): 3.17 µM
- IC50 (H1792/CRL5895): 9.08 µM
- IC50 (H441/HTB174): 1.01 µM
- IC50 (H2126/CRL5925): 4.13 µM
- IC50 (H1703/CRL5889): 0.4 µM
- IC50 (H2023/CRL5912): 11.6 µM
- IC50 (A549/CCL185): 7.6 µM
- IC50 (H1944/CRL5907): 17.6 µM
SMILES: CCOC(=O)N1CCN(/[N+]([O-])=N/Oc2ccc([N+](=O)[O-])cc2[N+](=O)[O-])CC1 [Compound 1]
- IC50 (NSCLC cell lines): 0.33 to 1.01 µM
- mitochondrial superoxide generation (mitochondrial superoxide): increase
